Where “and” joins values, the source holds several entries; their conditions need not be identical. Equal values may be shown once. Read-outs that look alike come from different tables or passages of the source.
Experiments:
[1] = Solubility (pH 2, pH 7, ethyl acetate); assay type: physicochemical
Excerpt: (§1) In the above table, the physicochemical data, e.g., solubility, were obtained following standard protocols known in the field (see, e.g., Reis et al., Mini Rev Med Chem., 2010, 10(11):1071-6; Avdeef et al., Expert Opin Drug Metab Toxicol., 2005, 1(2):325-42; Bharate et al., Comb Chem High Throughput Screen., 2016, 19(6):461-9; and Jain et al., J Pharm Biomed Anal., 2013, 86:11-35.); and the biochemical data, i.e., potency for ETA/ETB, were obtained following the protocols known in the field (see, e.g., Kirkby et al., Br J Pharmacol., 2008, 153(6):1105-19; and Maguire et al., Br J Pharmacol., 2014, 171(24):5555-72.).

Stability in solid state = assay type: physicochemical; conditions: 2 h@125° C.
Excerpt: as §1

ET-1 induced vasospasm = test: Rabbit ET-1 induced vasospasm model, retinal blood flow (OCT-A, FA); assay type: in vivo, rabbit (Oryctolagus cuniculus)
Experimental: Adult, male Dutch-belted rabbits were given a 20 μl intravitreal injection (IVT) of 0.5 μg of ET-1 followed by a 20 μl intravitreal injection of 10-100 μg Edonentan given 30 min after the ET-1 administration. IOP, optical coherence tomography—angiography (OCT-A), and fluorescein angiograms (FA) were performed at pre-specified time points (30, 45, 60, and 75 min) following ET-1 and Edonentan administration to assess retinal blood flow changes induced by ET-1+/−Edonentan. […] To evaluate the effect of retinal blood flow following intravitreally administered endothelin-1 (ET-1) followed by the antagonist Edonentan in the rabbit, rabbits (Oryctolagus cuniculus) were given a 20 μL intravitreal injection of ET-1 in the left eye followed by a 20 μL intravitreal injection of Edonentan at 2 (or 3) different doses (e.g. 0.1 μg, 0.5 μg, 2.5 μg). The pulse ox, tonometry, optical coherence tomography angiography (OCTA), fluorescein angiography (FA) and retinal leakage scoring were performed for evaluation.

elevated IOP rat eye = test: Morrison's rat model of glaucoma (RGC counts, PERG); assay type: in vivo, Brown Norway rats; conditions: topical eye drops 100 μg per dose, five days a week, four weeks
Excerpt: Adult male and female retired breeder Brown Norway rats (approximate age groups of 8 to 11 months) were obtained from Envigo (Indianapolis, IN). Baseline IOP measurements and pattern electroretinogram (PERG) amplitudes were collected prior to the surgery for elevation of IOP (to ensure that the IOP and PERG amplitudes were in the expected range of values). IOP was elevated in one eye (left eye) of the rats, while the corresponding right eyes served as contralateral controls. The Morrison method to elevate IOP in rats was carried out by injection of 50 μL of hypertonic saline through the episcleral veins to sclerose the trabecular meshwork. IOP was measured twice a week throughout the entire duration of the experiment. […] After detecting an elevation of IOP for two consecutive days, topical administration of eye drops ([…] (100 μg,) per dose of the tested compounds in the IOP elevated eye) was commenced and carried out for five days a week for a total of four weeks. In the 4th week of treatment, PERG analysis was carried out and rats were sacrificed by an overdose of pentobarbital (fatal-Plus). Aqueous humor was collected from the rat eyes, frozen and shipped for analysis. Retinal flat mounts were prepared, immunostained with the RGC marker, Brn3a antibody and surviving RG-Cs were counted in two eccentricities (central and peripheral).
For this study, the Morrison's model was used to induce ocular hypertension in adult male retired breeder Brown Norway rats as previously described by. Morrison et al., (Morrison J C, Moore C G, Deppmeier L M, Gold B G, Meshul C K, Johnson E C. A rat model of chronic pressure-induced optic nerve damage. Exp Eye Res. 1997;64(1):85-96).
The immunostained retinal flat mounts were obtained to measure the retinal ganglion cell (RGC) counts. To obtain immunostained retinal flat mounts, the animals were euthanized after the treatments and then their eyes were enucleated. The eye cups were fixed overnight at 4° C. in 4% paraformaldehyde (PFA) and retinal flat mounts were prepared for collecting images. The retinal ganglion cell (RGC) counting was conducted using the images of immunostained retinal flat mounts. The images were uploaded to ImageJ, a photo editor designed for biology research (Rasband, 1997-2018) and the labeled retinal ganglion cells were counted manually in two eccentricities (central and peripheral).
Pattern ERG (PERG) was used to assess the RGC function. […] Briefly, PERG signals were acquired from a DTL-plus electrode placed on the lower part of the corneal surface and the PERG waves were analyzed using the EMWIN software (LKC). The difference between the amplitude of the major positive (P1) and negative (N2) waves were calculated to decipher the PERG amplitude.

[2] = test system: laser-induced glaucoma eye; test: Laser-induced glaucoma non-human primate, optic nerve head blood flow (LSFG) after IVT administration; assay type: in vivo, rhesus macaque, Macaca Mulatta; conditions: IVT 50 μL of 0.02, 0.2 or 2.0 mg/mL, over 6 hours, glaucomatous eye
Experimental: Non-human primates (rhesus macaque, Macaca Mulatta) were obtained for this study. One eye of each animal underwent induction of elevation of intraocular pressure (TOP) by repeated laser photocoagulation of the trabecular meshwork. Imaging sessions were repeated to monitor the optic nerve head (ONH) and retinal structural changes. A study was performed to compare an experimental glaucoma eye and a contralateral healthy eye (control) of three non-human primates in global average mean blur rate (MBR) and MBR change from baseline over time as an index of ONH blood flow in a laser-induced glaucoma model. More specifically, a vehicle control, 0.02 mg/mL of Edonentan, 0.2 mg/mL of Edonentan, or 2.0 mg/mL of Edonentan was intravitreally administered (50 μL) to a glaucomatous eye of each of three non-human primates (rhesus macaque, Macaca Mulatta). These graphs show the ONH blood flow in the three non-human primates after IVT administration of a vehicle alone (FIG. 7A, FIG. 7E, and FIG. 7I), 0.02 mg/mL of Edonentan (FIG. 7B, FIG. 7F, and FIG. 7J), 0.2 mg/mL of Edonentan (FIG. 7C, FIG. 7G, and FIG. 7K) or 2.0 mg/mL of Edonentan (FIG. 7D, FIG. 7H, and FIG. 7L).

Compound: Cc1onc(NS(=O)(=O)c2ccccc2-c2ccc(-c3ncco3)cc2CN(C)C(=O)CC(C)(C)C)c1C [Edonentan, N-[[2′-[[(4,5-dimethyl-3-isoxazolyl)amino]sulfonyl]-4-(2-oxazolyl)[1,1′-biphenyl]-2-yl]methyl]-N,3,3-trimethylbutanamide]
- Solubility in Ethyl Acetate (rating) ([1]; ethyl acetate): Good
- solubility ([1]; ethyl acetate, organic solvent or mixture, read-out: Solubility in Ethyl Acetate): > 8900 µg/mL and > 16800 µM
- solubility ([1]; pH 2, simulated gastric fluid, read-out: Solubility at pH 2): < 0.54 µg/mL and < 1 µM
- Solubility at pH 7 ([1]; pH 7, amorphous form): 607 μM
- Stability in Solid State (verdict) (Stability in solid state): Stable
- Fluorescein dye velocity as an index of retinal blood flow, dose dependence (ET-1 induced vasospasm; 0.1 μg ET-1 and 0.1, 0.5, 2.5 or 10 μg Edonentan IVT (FIG. 8A, 8B)): dose-response
- Effect of ET-1 (retinal vasoconstriction), fluorescein angiography (ET-1 induced vasospasm; 0.5 μg ET-1 IVT, then 10 μg Edonentan IVT, within 90 min (60 min after Edonentan)): reversed
- Fluorescein dye velocity as an index of retinal blood flow (ET-1 induced vasospasm; healthy rabbits, 0.5 μg ET-1 and 10 μg antagonist IVT (FIG. 3)): improved to control levels
- RGC function (PERG) (elevated IOP rat eye): maintained RGC function
- RGC loss (RGC counts, retinal flat mounts) (elevated IOP rat eye): prevented RGC loss
- ONH blood flow (mean blur rate, LSFG) [2]: improvement of ONH blood flow in a dose-dependent manner

From US20240058265A1, “TREATMENT OF OCULAR DISEASES USING ENDOTHELIN RECEPTOR ANTAGONISTS” (Perfuse Therapeutics, Inc., priority 2021, published 2024)
